From patent US20030130698A1, “Method for screening therapeutic agents for modulation of ejaculatory response” (priority 2002, published 2003)

Key:
male mice [1] = experiment: Electroejaculation test after oral administration of diarylmethylpiperazine compounds (35 Hz, 3 to 8 volts); format: in vivo, mouse; details: for Effective Dose: oral administration, stimulation about 20 minutes after dosing, 3 to 8 volts in 0.5 volt increments; for Ejaculation Inhibition %: relative to control group, at the effective dose of the same line, oral, about 20 minutes after dosing, 3 to 8 volts
Experimental: (§1) Male, CD-1 mice (20-30 g) were housed in groups of ten (10) in Plexiglas® chambers with food and water available before any procedure. Animals were maintained on a 12 hour light/dark cycle in a temperature-controlled animal colony. Studies were carried out in accordance with the Guide for the Care and Use of Laboratory animals as adopted and promulgated by the National Institutes of Health.
(§2) Specifically, the bipolar electrode probe is an approximately 5 cm long tube having an outer diameter of approximately 0.2388 cm with an inner diameter of approximately 0.0787 cm and a wall thickness of […].
A testing mouse was restrained in a cone bag with rear legs extending from the bag. Excess fecal matter was removed from the rectum and a lubricated bipolar electrode was inserted approximately […] into the rectum. An oscillating current of 40 Hz was utilized for electrical stimulation starting at 3 volts with a gradual increase to 8 volts by increments of 0.5 volts, as shown in Table 1. The stimulation regime included 4 stimulating events for each voltage lasting 2 seconds with a rest period of 2 seconds between stimulating events. A white coagulum ejaculate from the penis indicated a successful ejaculation. If ejaculation occurred before reaching the 8 volt terminal voltage, the testing was stopped.
Further testing was conducted on a multiple diarylmethylpiperazine compounds according to the testing procedure setforth above wherein the stimulating protocol comprised multiple operating cycles of alternating stimulation periods and rest periods during which the operating voltage of each operating cycle increased in comparison with that of the immediately preceding operating cycle. Electroejaculation stimulation was conducted at 35 Hz oscillating frequency, starting at 3 volts with a gradual increase to 8 volts by increments of 0.5 volts and occurred about 20 minutes after oral administration. The results, showing ejaculation inhibition relative to that of the control group, are compiled in Table 2.

male mice [2] = experiment: Electroejaculation test after subcutaneous SNC-80 (40 Hz, 3 to 8 volts); format: in vivo, mouse; details: terminal voltage 8 volts, FIG. 3
Experimental: as §1, §2
SNC-80 was dissolved in 5% dextrose injection solution. Equal molar of HCL was added when the manufacturer packaged the compound in a base form. The placebo was prepared in a similar manner without the test drug 10 minutes after the injection, the test mouse was subjected to electrostimulation. Ten mice were tested for each dose level, the order of each mouse receiving different doses was blinded and in a random manner.
A testing mouse was restrained in a cone bag with rear legs extending from the bag. Excess fecal matter was removed from the rectum and a lubricated bipolar electrode was inserted approximately 2.5 into the rectum. […]

[3] = test system: mouse vas deferens smooth muscle; details: in vitro; cited from earlier work
delta opioid receptor = delta opioid receptor (Homo sapiens, UniProt P41143); details: delta opioid receptor agonist versus mu opioid receptors; cited from earlier work
delta opioid receptor, sequence (P41143 whole entry): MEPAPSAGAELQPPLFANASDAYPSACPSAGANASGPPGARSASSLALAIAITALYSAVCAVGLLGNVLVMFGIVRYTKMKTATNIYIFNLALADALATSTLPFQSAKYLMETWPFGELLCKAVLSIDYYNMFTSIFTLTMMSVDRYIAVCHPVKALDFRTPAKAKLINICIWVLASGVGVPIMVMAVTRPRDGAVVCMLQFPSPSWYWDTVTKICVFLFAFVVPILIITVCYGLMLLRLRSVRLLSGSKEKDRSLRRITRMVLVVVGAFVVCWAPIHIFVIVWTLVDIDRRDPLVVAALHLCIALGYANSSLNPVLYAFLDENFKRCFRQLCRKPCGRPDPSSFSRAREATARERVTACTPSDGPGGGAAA

Row | SMILES | Effective Dose (male mice [1]) | Ejaculation Inhibition % (male mice [1]) | inhibitory effect on ejaculation at reduced dose (male mice [2]; 0.1 mg/kg subcutaneous) | occurrence of ejaculation compared to control group (male mice [2]; 1 mg/kg subcutaneous) | contraction of mouse vas deferens smooth muscle [3] | selectivity over mu opioid receptors (delta opioid receptor)
1 | CCN(CC)C(=O)c1ccc([C@H](c2cccc(O)c2)N2C[C@@H](C)N(CC3CC3)C[C@@H]2C)cc1 [4-(alpha-R)-alpha-((2S,5R)-4-(Cyclopropylmethyl)-2,5-dimethyl-1-piperazinyl)-3-hydroxybenzyl)-N,N-diethylbenzamide] | 0.3 mg/kg | 60% | – | – | – | –
2 | CCN(CC)C(=O)c1ccc([C@@H](c2ccccc2)N2C[C@H](C)N(Cc3cccc(F)c3)C[C@H]2C)cc1 [4-((alpha-R)-alpha-((2R,5 S)-2,5-Dimethyl-4-(3-fluorobenzyl)-1-piperazinyl)benzyl)-N,N-diethylbenzamide] | 0.4 mg/kg | 75% | – | – | – | –
3 | CCN(CC)C(=O)c1ccc([C@H](c2cccc(OC)c2)N2C[C@@H](C)N(Cc3ccc(F)cc3)C[C@@H]2C)cc1 [4-((alpha-R)-alpha-((2S,5R)-2,5-Dimethyl-4-(4-fluorobenzyl)-1-piperazinyl)-3-methoxybenzyl)-N,N-diethylbenzamide] | 3 mg/kg | 38% | – | – | – | –
4 | CCN(CC)C(=O)c1ccc([C@H](c2cccc(O)c2)N2C[C@@H](C)N(Cc3cccc(F)c3)C[C@@H]2C)cc1 [4-((alpha-R)-alpha-((2S,5R)-2,5-Dimethyl-4-(3-fluorobenzyl)-1-piperazinyl)-3-hydroxybenzyl)-N,N-diethylbenzamide] | 3 mg/kg | 60% | – | – | – | –
5 | CCN(CC)C(=O)c1ccc([C@H](c2cccc(OC)c2)N2C[C@@H](C)N(Cc3ccccc3)C[C@@H]2C)cc1 [4-(alpha-R)-alpha-((2S,5R)-4-Benzyl-2,5-dimethyl-1 piperazinyl)-3-methoxybenzyl)-N,N-diethylbenzamide] | 3 mg/kg | 33% | – | – | – | –
6 | CCN(CC)C(=O)c1ccc([C@H](c2cccc(OCC(=O)O)c2)N2C[C@@H](C)N(Cc3ccccc3)C[C@@H]2C)cc1 [3-((alpha-R)-alpha-((2S,5R)-4-Benzyl-2,5-dimethyl-1-piperazinyl)-4-(diethylaminocarbonyl)benzyl)phenoxyacetic acid] | 3 mg/kg | 66% | – | – | – | –
7 | C=CCN1C[C@H](C)N([C@H](c2ccc(C(=O)N(CC)CC)cc2)c2cccc(OCC(=O)O)c2)C[C@H]1C [3-((alpha-R)-alpha-((2S,5R)-4-Allyl-2,5-dimethyl-1-piperazinyl)-4-(diethylamino-carbonyl)benzyl)phenoxyacetic acid] | 0.01 mg/kg | 45% | – | – | – | –
8 | CCN(CC)C(=O)c1ccc([C@H](c2ccccc2)N2C[C@@H](C)N(Cc3ccc(O)cc3)C[C@@H]2C)cc1 [4-((alpha-S)-alpha-((2S,5R)-2,5-Dimethyl-4-(4-hydroxybenzyl)-1-piperazinyl)-benzyl)-N,N-diethylbenzamide] | 3 mg/kg | 50% | – | – | – | –
9 | C=CCN1C[C@@H](C)N([C@H](c2ccc(S(=O)(=O)N(C)C)cc2)c2cccc(O)c2)C[C@@H]1C [4-[(R)-((2R,5S)-4-Allyl-2,5-diimethylpiperazin-1-yl)(3-hydroxyphenyl)methyl]-N,N-dimethylbenzenesulfonamide] | 0.3 mg/kg | 50% | – | – | – | –
10 | CCN(CC)C(=O)c1ccc([C@H](c2cccc(OC)c2)N2C[C@@H](C)N(Cc3ccccc3F)C[C@@H]2C)cc1 [4-((alpha-R)-alpha-((2S,5R)-2,5-Dimethyl-4-(2-fluorobenzyl)-1-piperazinyl)-3-methoxybenzyl)-N,N-diethylbenzamide] | 10 mg/kg | 50% | – | – | – | –
11 | C=CCN1C[C@H](C)N([C@H](c2ccc(C(=O)N(CC)CC)cc2)c2cccc(OC)c2)C[C@H]1C [SNC-80, (+)-4-[(αR)-α-((2S,5R)-4-Allyl-2,5-dimethyl-1-piperazinyl)-3-methoxybenzyl]-N,N-diethyl benzamide] | – | – | inhibitory effect diminished | significantly reduced the occurrence of ejaculation | block the contraction | 2000 fold
